# From US20230101768A1, “METHOD TO TREAT MANGANESE TOXICITY AND MANGANESE-INDUCED PA[…] HUMANS” (priority 2021, published 2023)
# Where two headings read alike, the source gives them in different places. Starred links: 1 amine or outer side, 2 acyl side, 3 side chain; linkers in the order of their positions; H or OH if unused. Positions of bridges follow the written chain, without caps; N, C: chain ends. Non-standard residues stand in square brackets, D forms with d. Residues, ends and D or L forms follow the SMILES beside them. Chains are numbered I, II in the order given. *: point of attachment. Actinocin(9to1) = Cc1c2oc3c(C)ccc(C(=O)[*:1])c3nc-2c(C(=O)[*:2])c(N)c1=O; NMeV = CN[C@H](C(=O)O)C(C)C; Cbz = O=C(OCc1ccccc1)*; Sar = CNCC(=O)O
# What was measured:
# [1] = tested on: SLC30A10; format: cell-based, human; settings: for SLC30A10 expression after prolyl hydroxylase inhibitor: indicated doses for 16 h or indicated times, no drug normalized to 1
# Description: (§1) Cells were treated with 0 or 250 μM manganese for 4 h, and gene expression was analyzed by qRT-PCR. For each transcript, expression without manganese treatment was normalized to 1. N=4. Data are mean±SE.
# (§2) Cell culture. HepG2 cells were grown in Eagle's modified essential medium (MEM; Corning) with 10% fetal bovine serum (Atlanta Biologicals), 100 IU/ml penicillin (Corning), and 100 μg/ml streptomycin (Corning). 293T cells were maintained in Dulbecco's modified essential medium/F12 (Thermo) supplemented with 10% fetal bovine serum, penicillin (100 IU/ml), and streptomycin (100 μg/ml). Human primary hepatocytes were purchased from XenoTech (catalog #HPCH10+) and cultured according to protocols provided by the supplier.
# (§3) manganese and drug treatments in cell culture. Cells were treated with indicated levels of manganese as manganeseCl2.4H2O (Fisher). Vehicle for manganese treatment was water. Prolyl hydroxylase inhibitors roxadustat (Caymen), vadadustat, and molidustat (both APE-Bio); the HIFα inhibitor LW6 (Selleckchem); the proteasomal inhibitor MG132 (Sigma); and the transcription inhibitor actinomycin D (Sigma) were dissolved in DMSO. […] Vehicle treatment for all drugs was DMSO.
# (§4) Quantitative RT-PCR assays. RNA extraction from HepG2 cells and mouse tissue, reverse transcription to cDNA, and qRT-PCR analyses were performed as described by us previously (47, 50). For analyses of mouse brain samples, a part of the midbrain, including the basal ganglia, was used. Transcript levels were quantified using the ΔΔCT method with 18S (in mice) or TBP (in HepG2 cells) as the internal control, also as described by us previously (47, 50).
# [2] = tested on: prolyl hydroxylated HIF1α; format: cell-based, human
# Description: as §3
# (§5) Immunoblots. HepG2 cells were cultured in 35 mm dishes, treated with or without manganese, MG132 and/or prolyl hydroxylase inhibitors, and scrapped using 200 μl of RIPA buffer (50 mM Tris-HCl, pH7.4; 150 mM NaCl; 1Mm EDTA; 1% Triton; 0.25% sodium deoxycholate; protease inhibitors cocktail (Thermo A32953)). Whole-cell lysates were prepared by adding loading buffer (50 mM Tris-HCl, pH 7.4; 2% sodium dodecyl sulfate; 10% glycerol, 0.1 M dithiothreitol; 0.01% (weight/volume) bromophenol blue) and boiling the samples for 5 min. Equal volumes of samples were loaded per lane. Further processing was as described by us previously (47). Images were quantified using ImageQuant TL software (GE).
# (§6) Antibodies and chemicals. The inventors used the following commercial primary antibodies in this study: rabbit polyclonal anti-HIF1α (Abcam, Ab2185), rabbit polyclonal anti-HIF2α (Novus, NB100-122), rabbit monoclonal anti-HIF1α proline 564 (Cell signaling, 3434S), and mouse monoclonal anti-tubulin (Sigma, T5168). […] Sources of chemicals not provided elsewhere were Thermo Fisher Scientific or Sigma-Aldrich.
# [3] = tested on: HIF1α; format: cell-based, human; settings: HepG2 cells, 20 μM roxadustat, 80 μM vadadustat or 20 μM molidustat for 16 h
# Description: as §3, §5, §6
# [4] = tested on: HIF2α; format: cell-based, human; settings: HepG2 cells, 20 μM roxadustat, 80 μM vadadustat or 20 μM molidustat for 16 h
# Description: as §3, §5, §6
# [5] = tested on: HepG2 cells; format: cell-based, human
# Description: as §2, §3
# (§7) Inductively coupled plasma mass spectrometry. Metal measurements using ICP-MS were performed exactly as described by us previously (47, 50, 51, 99).
# [6] = tested on: HepG2 cells; test: MTT cell viability assay, manganese-induced cell death; format: cell-based, human; settings: 20 μM roxadustat, 80 μM vadadustat or 20 μM molidustat for 16 h then manganese for 24 h
# Description: manganese and drug treatments in cell culture. […] Vehicle for manganese treatment was water. […] Vehicle treatment for all drugs was DMSO.
# Cell viability assays. These were performed using the 3-(4,5-dimethylthiazol-2-yl)-2,5-diphenyl tetrazolium bromide (MTT) reagent (Sigma) as described by us previously (47, 50).
# [7] = tested on: SLC30A10; format: cell-based; settings: primary human hepatocytes; for SLC30A10 expression after prolyl hydroxylase inhibitor: 20 μM roxadustat or 80 μM vadadustat for 16 h
# Description: (§8) (A) and (B): qRT-PCR assays in cells treated with or without 10 μM LW6 for 1 h followed by 0 or 250 μM manganese for 4 h (A) or with or without 20 μM roxadustat or 80 μM vadadustat for 16 h (B). […] For (B), expression in the absence of drug treatment was normalized to 1. N=3. Mean±SE. *P<0.05 by t-test (A) or one-way ANOVA and Dunnett's post hoc test for the comparison between no drug and other conditions (B).
# as §2, §3, §4
# [8] = tested on: VEGF; format: cell-based; settings: primary human hepatocytes; for VEGF expression after prolyl hydroxylase inhibitor: 20 μM roxadustat or 80 μM vadadustat for 16 h
# Description: as §8, §2, §3, §4
# [9] = tested on: SLC30A10; format: in vivo, mice; settings: C57BL/6J mice, roxadustat 10 mg/kg daily i.p. for 4 weeks
# Description: A well-characterized drinking water-based manganese exposure regimen was used to model human environmental manganese exposure by providing mice with ˜50 mg manganeseCl2.4H2O/kg body weight daily (˜15 mg absolute manganese/kg per day) from birth until 8 weeks of age. This, and related similar, dosing regimens: 1) approximate the increase in manganese exposure in humans consuming well water contaminated with 1.5 mg manganese/L, which is the median well water concentration associated with neurological deficits in children; 2) increase brain manganese levels by ˜2-3 fold, similar to human patients; 3) produce measurable neurobehavioral deficits without overt toxicity; and 4) model exposure to manganese in developmentally-sensitive early-life and adolescent periods (11). Pre-weaning manganese was delivered by pipette directly into the mouth, and post-weaning manganese was delivered in drinking water using procedures described in detail in ref. (11). In brief, pre-weaning dosing was adjusted to each animal's body weight. For this, a stock solution of 69.2 mg absolute manganese/ml prepared in milliQ water was diluted in milliQ water containing 2.5% (wt/vol) of the natural sweetener Stevia (to facilitate intake by pups), and the required manganese amount (0.2 μl manganese stock/g body weight) was delivered in a dose of ˜5-10 μl/animal. For post-weaning exposure, a 27.7 mg absolute manganese/ml stock solution was prepared in water and diluted to 0.069 mg absolute manganese/ml in drinking water, which provided mice with ˜15 mg absolute manganese/kg per day based on a daily water intake of ˜2-5 ml/mouse depending on age.
# (§9) To assay for the protective effect of roxadustat, animals were exposed to roxadustat or vehicle with or without manganese in drinking water from ˜4 weeks of age. Treatment lasted for 4 weeks from initiation. Roxadustat (Selleckchem) was prepared as a 50 mg/ml stock solution in DMSO, then diluted to 1 mg/ml in sterile phosphate buffered saline (PBS), and delivered by daily i.p. injection at 10 mg/kg. Vehicle was 2% DMSO in PBS. For this experiment, drinking water manganese levels were adjusted to 0.138 mg absolute manganese/ml so that animals received ˜30 mg absolute manganese/kg daily. A higher level of manganese was used because exposure was initiated after weaning, which was necessary because daily i.p. injections for roxadustat delivery were not possible in the pre-weaning period.
# (§10) Animals were euthanized using carbon dioxide and tissue dissected for qRT-PCR or ICPMS analyses as described by us previously (50).
# as §4
# [10] = tested on: C57BL/6J mice
# Description: as §9
# Open-field assays for neurobehavior assessment. Open-field analyses were performed as described in a recent publication (51).
# [11] = tested on: C57BL/6J mice; settings: roxadustat 10 mg/kg daily i.p. with or without manganese in drinking water, 4 weeks, two-way ANOVA
# Description: as §9, §10, §7
# [12] = tested on: VEGF; format: cell-based, human; settings: HepG2 cells, 10 μM LW6 for 1 h then 250 μM manganese for 4 h
# Description: as §1, §2, §3, §4
# [13] = tested on: SLC30A10 promoter; format: cell-based, human
# Source text: A luciferase reporter plasmid containing the proximal promoter of human SLC30A10 has been previously described and was a gift of Dr. Ruth Valentine (100). The promoter fragment corresponding to bases −679 to +211 relative to the start of transcription was sub-cloned into the Xho1 and SpeI sites of pRRLSIN.cPPTLuciferase.WPRE vector (Addgene, #69251), which is a luciferase vector for lentivirus infections. Deletion mutants were generated using the loop-out modification of the QuikChange protocol.
# Lentiviral infections. Stable cells were generated by lentivirus infection essentially as described by us previously (49, 98). Briefly, lentivirus was produced in HEK293T cells by co-transfecting transfer plasmids described above with plasmids coding for a third generation packing system that is routinely used (pRSV-Rev, pRRE, and pCMV-VSVG) (49, 98). Viral supernatants were collected 40-48 h post-transfection. HepG2 cells for infection were plated in a 60 mm dish 24 h before infection so that cells reached a confluence of 30% on the day of infection. Collected viral supernatants were filtered through a 0.45-μm polyvinylidene difluoride filter, and cells were incubated with a 1:2 dilution of viral supernatant containing 5 μg/mL Polybrene (Santa Cruz). […]
# [14] = 10 μM LW6 for 1 h then 250 μM manganese for 4 h
Compound,SLC30A10 expression after prolyl hydroxylase inhibitor ([1]; HepG2 cells),HIF1α protein levels after prolyl hydroxylase inhibitor [3],HIF2α protein levels after prolyl hydroxylase inhibitor [4],"Intracellular Fe, Cu, and Zn levels [5]",Intracellular manganese in cells not exposed to manganese [5],"Intracellular manganese levels under elevated manganese exposure, versus controls [5]",Protection against manganese-induced cell death [6],SLC30A10 expression after prolyl hydroxylase inhibitor [7],VEGF expression after prolyl hydroxylase inhibitor [8],other results
"Cc1c2oc3c(C)ccc(C(=O)N[C@@H]4C(=O)N[C@H](C(C)C)C(=O)N5CCC[C@H]5C(=O)N(C)CC(=O)N(C)[C@@H](C(C)C)C(=O)O[C@@H]4C)c3nc-2c(C(=O)N[C@@H]2C(=O)N[C@H](C(C)C)C(=O)N3CCC[C@H]3C(=O)N(C)CC(=O)N(C)[C@@H](C(C)C)C(=O)O[C@@H]2C)c(N)c1=O [actinomycin D, reference compound] (I: T[dV]P[Sar][NMeV] / II: T[dV]P[Sar][NMeV]; ester I:1-I:C, II:1-II:C; linker I:N-II:N via Actinocin(9to1))",,,,,,,,,,Effect of actinomycin D on increase in SLC30A10 mRNA after manganese exposure [1]: blocked
"CC(C)C[C@@H](C=O)NC(=O)[C@H](CC(C)C)NC(=O)[C@H](CC(C)C)NC(=O)OCc1ccccc1 [MG132, reference compound] (Cbz-Leu-Leu-Leu-aldehyde)",,,,,,,,,,Prolyl hydroxylated HIF1α after proteasome inhibition [2]: accumulation
"O=C(O)CNC(=O)c1ncc(-c2cccc(Cl)c2)cc1O [vadadustat, 2-[[5-(3-chlorophenyl)-3-hydroxypyridine-2-carbonyl]amino]acetic acid]",enhanced,increased,increased,no effect,did not impact,significantly lower,protected,increased,increased,
"Cc1nc(C(=O)NCC(=O)O)c(O)c2ccc(Oc3ccccc3)cc12 [roxadustat, 2-[(4-hydroxy-1-methyl-7-phenoxyisoquinoline-3-carbonyl)amino]acetic acid]",enhanced,increased,increased,no effect,did not impact,significantly lower,protected,increased,increased,"Brain SLC30A10 levels [9]: did not impact; Intestinal SLC30A10 levels [9]: increased; Open-field activity, roxadustat treatment by itself ([10]; C57BL/6J mice, roxadustat 10 mg/kg daily i.p. for 4 weeks, no manganese): did not impact; Hypo-locomotor phenotype (reduced vertical movement) in mice treated with manganese and roxadustat ([10]; mouse, in vivo): not detected; Brain manganese levels, main effect of roxadustat [11]: reducing"
"COC(=O)c1ccc(O)c(NC(=O)COc2ccc(C34CC5CC(CC(C5)C3)C4)cc2)c1 [LW6, reference compound]",,,,,,,,,,"Effect of LW6 on manganese-induced upregulation of SLC30A10 ([1]; HepG2 cells, 10 μM LW6 for 1 h then 250 μM manganese for 4 h): robustly blocked; Effect of LW6 on manganese-induced upregulation of VEGF [12]: robustly blocked; Effect of LW6 on manganese-induced increase in activity of SLC30A10 promoter luciferase reporter [13]: abolished; Effect of LW6 on manganese-induced increase of SLC30A10 expression [7, 14]: inhibited; Effect of LW6 on manganese-induced increase of VEGF expression [8, 14]: inhibited"
